In ChEMBL document CHEMBL2176932, “De novo cyclic pseudopeptides containing aza-β3-amino acids exhibiting antimicrobial activities” (J Med Chem, 2012):
Values after ≈ are worked out from the molar mass of the structure shown.

What was measured:
Micrococcus luteus = test: Antibacterial activity against Micrococcus luteus ATCC 10240 after 48 hrs by microtiter broth dilution method; assay type: functional; conditions: ATCC 10240, 48 h
[1] = Selectivity ratio of HC50 for sheep RBC to MIC for Escherichia coli ATCC 25922; assay type: functional
Priestia megaterium = test: Antibacterial activity against Bacillus megaterium ATCC 10778 after 48 hrs by microtiter broth dilution method; assay type: functional; conditions: ATCC 10778, 48 h
Escherichia coli = test: Antibacterial activity against Escherichia coli ATCC 25922 after 48 hrs by microtiter broth dilution method; assay type: functional; conditions: ATCC 25922, 48 h
Streptococcus equinus = test: Antibacterial activity against Streptococcus equinus ATCC 5623 after 48 hrs by microtiter broth dilution method; assay type: functional; conditions: ATCC 5623, 48 h
Listeria monocytogenes = test: Antibacterial activity against Listeria monocytogenes SOR 100 after 48 hrs by microtiter broth dilution method; assay type: functional; conditions: SOR 100, 48 h
[2] = Toxicity in sheep RBC assessed as hemolytic activity at 100 uM after 1 hr; assay type: cell-based, Ovis aries, Erythrocyte; conditions: sheep red blood cells, read-out: Activity
Lactococcus garvieae = test: Antibacterial activity against Lactococcus garvieae ATCC 43921 after 48 hrs by microtiter broth dilution method; assay type: functional; conditions: ATCC 43921, 48 h
Enterococcus faecalis = test: Antibacterial activity against Enterococcus faecalis CIP 186 after 48 hrs by microtiter broth dilution method; assay type: functional; conditions: CIP 186, 48 h
[3] = Selectivity ratio of HC50 for sheep RBC to MIC for Staphylococcus aureus ATCC 25923; assay type: functional
Klebsiella aerogenes = test: Antibacterial activity against Enterobacter aerogenes ATCC 13048 after 48 hrs by microtiter broth dilution method; assay type: functional; conditions: ATCC 13048, 48 h
Staphylococcus aureus = test: Antibacterial activity against Staphylococcus aureus ATCC 25923 after 48 hrs by microtiter broth dilution method; assay type: functional; conditions: ATCC 25923, 48 h
Salmonella enterica = test: Antibacterial activity against Salmonella enterica ATCC 13076 after 48 hrs by microtiter broth dilution method; assay type: functional; conditions: ATCC 13076, 48 h
[4] = Toxicity in sheep RBC assessed as hemolytic activity after 1 hr; assay type: cell-based, Ovis aries, Erythrocyte; conditions: sheep red blood cells
Pseudomonas aeruginosa = test: Antibacterial activity against Pseudomonas aeruginosa ATCC 27853 after 48 hrs by microtiter broth dilution method; assay type: functional; conditions: ATCC 27853, 48 h
[5] = Selectivity ratio of MHC for sheep RBC to MIC for Escherichia coli ATCC 25922; assay type: functional
Aeromonas caviae = test: Antibacterial activity against Aeromonas caviae ATCC 15648 after 48 hrs by microtiter broth dilution method; assay type: functional; conditions: ATCC 15648, 48 h
Klebsiella oxytoca = test: Antibacterial activity against Klebsiella oxytoca CIP 7932 after 48 hrs by microtiter broth dilution method; assay type: functional; conditions: CIP 7932, 48 h
[6] = Selectivity ratio of MHC for sheep RBC to MIC for Staphylococcus aureus ATCC 25923; assay type: functional
[7] = Half life in bovine serum; assay type: ADME, cell-free, Bos taurus; conditions: cattle

Row | Structure (SMILES) | MIC (Micrococcus luteus) [µM] | MIC (Priestia megaterium) [µM] | MIC (Escherichia coli) [µM] | MIC (Streptococcus equinus) [µM] | MIC (Listeria monocytogenes) [µM] | MIC (Lactococcus garvieae) [µM] | MIC (Enterococcus faecalis) [µM] | MIC (Klebsiella aerogenes) [µM] | MIC (Staphylococcus aureus) [µM] | MIC (Salmonella enterica) [µM] | MIC (Pseudomonas aeruginosa) [µM] | MIC (Aeromonas caviae) [µM] | MIC (Klebsiella oxytoca) [µM] | half-life [7] [h] | Selectivity ratio [1] | hemolysis at 1 h, 100 µM [2] [%] | Selectivity ratio [3] | HC50 at 1 h [4] [µM] | Selectivity ratio [5] | Selectivity ratio [6]
1 | N=C(N)NCCC[C@@H]1NC(=O)CN(CCCCN)NC(=O)CN(Cc2ccc3ccccc3c2)NC(=O)[C@H](Cc2ccccc2)NC(=O)CN(Cc2ccc3ccccc3c2)NC1=O | 6.25 (≈ 5.44 µg/mL) | 3.12 (≈ 2.72 µg/mL) | 100 (≈ 87.1 µg/mL) | 12.5 (≈ 10.9 µg/mL) | 25 (≈ 21.8 µg/mL) | 100 (≈ 87.1 µg/mL) | > 100 | 100 (≈ 87.1 µg/mL) | 50 (≈ 43.6 µg/mL) | 100 (≈ 87.1 µg/mL) | 50 (≈ 43.6 µg/mL) | > 100 | > 100 | – | 1 | 1 | 2 | > 100 | 1 | 2
2 | C[C@@H](O)[C@@H]1NC(=O)CN(CCCCN)NC(=O)[C@H](Cc2ccccc2)NC(=O)CN(Cc2cccc3ccccc23)NC(=O)[C@H](CO)NC(=O)CN(CCCCN)NC(=O)[C@H](CO)NC(=O)CN(CCCCN)NC1=O | > 100 | > 100 | 100 (≈ 106 µg/mL) | > 100 | > 100 | > 100 | > 100 | > 100 | > 100 | > 100 | 100 (≈ 106 µg/mL) | > 100 | > 100 | – | – | 0 | – | > 100 | – | –
3 | CC[C@H](C)[C@H](NC(=O)CN)C(=O)NCC(=O)N[C@@H](C)C(=O)N[C@H](C(=O)N[C@@H](CC(C)C)C(=O)N[C@@H](CCCCN)C(=O)N[C@H](C(=O)N[C@@H](CC(C)C)C(=O)N[C@H](C(=O)N[C@H](C(=O)NCC(=O)N[C@@H](CC(C)C)C(=O)N1CCC[C@H]1C(=O)N[C@@H](C)C(=O)N[C@@H](CC(C)C)C(=O)N[C@H](C(=O)N[C@@H](CO)C(=O)N[C@@H](Cc1c[nH]c2ccccc12)C(=O)N[C@H](C(=O)N[C@@H](CCCCN)C(=O)N[C@@H](CCCNC(=N)N)C(=O)N[C@@H](CCCCN)C(=O)N[C@@H](CCCNC(=N)N)C(=O)N[C@@H](CCC(N)=O)C(=O)N[C@@H](CCC(N)=O)C(N)=O)[C@@H](C)CC)[C@@H](C)CC)[C@@H](C)O)[C@@H](C)O)C(C)C)C(C)C [MELITTIN] | 1.56 (≈ 4.44 µg/mL) | 6.25 (≈ 17.8 µg/mL) | – | 3.12 (≈ 8.88 µg/mL) | – | 6.25 (≈ 17.8 µg/mL) | 12.5 (≈ 35.6 µg/mL) | 12.5 (≈ 35.6 µg/mL) | – | 25 (≈ 71.2 µg/mL) | – | > 100 | 25 (≈ 71.2 µg/mL) | 0.06 | – | – | – | – | – | –
4 | CC(C)CN1CC(=O)N[C@@H](Cc2c[nH]c3ccccc23)C(=O)NN(CCCCN)CC(=O)N[C@@H](CCCCN)C(=O)NN(CCCCN)CC(=O)N[C@@H](Cc2c[nH]c3ccccc23)C(=O)N1 | 100 (≈ 91.5 µg/mL) | 25 (≈ 22.9 µg/mL) | > 100 | > 100 | > 100 | > 100 | > 100 | > 100 | > 100 | > 100 | > 100 | > 100 | > 100 | – | – | 0 | – | > 100 | – | –
5 | CCCCCCCCN1CC(=O)N[C@@H](Cc2c[nH]c3ccccc23)C(=O)NN(CCCCCCCC)CC(=O)N[C@@H](CCCCN)C(=O)NN(CCCCN)CC(=O)N[C@@H](Cc2c[nH]c3ccccc23)C(=O)N1 | 3.12 (≈ 3.16 µg/mL) | 6.25 (≈ 6.33 µg/mL) | > 100 | 6.25 (≈ 6.33 µg/mL) | 3.12 (≈ 3.16 µg/mL) | 6.25 (≈ 6.33 µg/mL) | 12.5 (≈ 12.7 µg/mL) | > 100 | 6.25 (≈ 6.33 µg/mL) | > 100 | 25 (≈ 25.3 µg/mL) | > 100 | > 100 | > 2 | – | 55 | 14.4 | 90 | – | 1

The next lines start with results.

Row | MIC (Micrococcus luteus) [µM] | MIC (Priestia megaterium) [µM] | MIC (Escherichia coli) [µM] | MIC (Streptococcus equinus) [µM] | MIC (Listeria monocytogenes) [µM] | MIC (Lactococcus garvieae) [µM] | MIC (Enterococcus faecalis) [µM] | MIC (Klebsiella aerogenes) [µM] | MIC (Staphylococcus aureus) [µM] | MIC (Salmonella enterica) [µM] | MIC (Pseudomonas aeruginosa) [µM] | MIC (Aeromonas caviae) [µM] | MIC (Klebsiella oxytoca) [µM] | half-life [7] [h] | Structure (SMILES) | Selectivity ratio [1] | hemolysis at 1 h, 100 µM [2] [%] | Selectivity ratio [3] | HC50 at 1 h [4] [µM] | Selectivity ratio [5] | Selectivity ratio [6]
6 | 12.5 (≈ 13.3 µg/mL) | 12.5 (≈ 13.3 µg/mL) | > 100 | 12.5 (≈ 13.3 µg/mL) | 12.5 (≈ 13.3 µg/mL) | 50 (≈ 53.2 µg/mL) | 12.5 (≈ 13.3 µg/mL) | > 100 | 25 (≈ 26.6 µg/mL) | > 100 | > 100 | > 100 | > 100 | > 2 | CCCCCCCCCCCCN1CC(=O)N[C@@H](Cc2c[nH]c3ccccc23)C(=O)NN(Cc2cccc3ccccc23)CC(=O)N[C@@H](CCCCN)C(=O)NN(CCCCN)CC(=O)N[C@@H](CC2CCCCC2)C(=O)N1 | – | 62 | 2 | 50 | – | 0.12
7 | 6.25 (≈ 5.06 µg/mL) | 12.5 (≈ 10.1 µg/mL) | > 100 | 25 (≈ 20.2 µg/mL) | 100 (≈ 80.9 µg/mL) | > 100 | > 100 | > 100 | > 100 | 100 (≈ 80.9 µg/mL) | 100 (≈ 80.9 µg/mL) | > 100 | > 100 | – | CC(C)C[C@@H]1NC(=O)CN(Cc2ccc3ccccc3c2)NC(=O)[C@H](CCCCN)NC(=O)CN(CCCCN)NC(=O)CN(Cc2ccc3ccccc3c2)NC1=O | – | 0 | – | > 100 | – | –
8 | 100 (≈ 84.2 µg/mL) | 50 (≈ 42.1 µg/mL) | > 100 | > 100 | > 100 | > 100 | > 100 | > 100 | > 100 | > 100 | > 100 | > 100 | > 100 | – | CC(C)CN1CC(=O)N[C@@H](Cc2c[nH]c3ccccc23)C(=O)NN(CC(C)C)CC(=O)N[C@@H](CCCCN)C(=O)NN(CCCCN)CC(=O)N[C@@H](CCCCN)C(=O)N1 | – | 0 | – | > 100 | – | –
9 | 50 (≈ 45 µg/mL) | 25 (≈ 22.5 µg/mL) | > 100 | 100 (≈ 90 µg/mL) | > 100 | > 100 | > 100 | > 100 | > 100 | > 100 | > 100 | > 100 | > 100 | – | CC(C)CN1CC(=O)N[C@@H](Cc2c[nH]c3ccccc23)C(=O)NN(CC(C)C)CC(=O)N[C@@H](CCCCN)C(=O)NN(CCCCN)CC(=O)N[C@@H](Cc2c[nH]c3ccccc23)C(=O)N1 | – | 0 | – | > 100 | – | –
10 | 50 (≈ 36.2 µg/mL) | 50 (≈ 36.2 µg/mL) | > 100 | 100 (≈ 72.5 µg/mL) | > 100 | > 100 | > 100 | > 100 | > 100 | > 100 | > 100 | > 100 | > 100 | – | CC(C)C[C@H]1NC(=O)CN(CCCCN)NC(=O)[C@H](CCCCN)NC(=O)CN(Cc2cccc3ccccc23)NC(=O)CN(CC(C)C)NC1=O | – | 0 | – | > 100 | – | –
11 | 25 (≈ 19.1 µg/mL) | 25 (≈ 19.1 µg/mL) | > 100 | 100 (≈ 76.6 µg/mL) | > 100 | > 100 | > 100 | > 100 | > 100 | > 100 | > 100 | > 100 | > 100 | – | CC(C)C[C@@H]1NC(=O)CN(Cc2cccc3ccccc23)NC(=O)[C@H](CCCNC(=N)N)NC(=O)CN(CCCNC(=N)N)NC(=O)[C@H](CC(C)C)NC1=O | – | 0 | – | > 100 | – | –
